Data as given in the NIST ThermoML archive (doi:10.1021/acs.jced.8b00977).
Numbers after ± are expanded uncertainties.

How the values were obtained:
[1] = Molar enthalpy of transition or fusion; conditions: Crystal; DSC
[2] = Crystal; DSC

Molar enthalpy of transition or fusion [1]: 17 ± 0.884 kcal/mol
Triple point temperature [2]: 468.87 ± 1 K
Structure (SMILES): CC(=O)CC(c1ccccc1)c1c([O-])c2ccccc2oc1=O.[Na+] (configuration not stated) [warfarin sodium]
